According to patent publication EP4603105A1, “PHARMACEUTICAL COMPOSITION CONTAINING CYCLIC COMPOUND HAVING SELECTIVE KRAS INHIBITORY EFFECT AGAINST HRAS AND NRAS” (CHUGAI SEIYAKU KABUSHIKI KAISHA, priority 2022, dated 2024):
*1 amine or outer side, *2 acyl side, *3 side chain or, on linkers, in order; H or OH if unused. Where a SMILES comes first, the peptide text is derived from it. Bridges are numbered along the chain shown (N, C = ends). [ ]: non-standard residue; d: D form. The star is where a group is joined. hPhe(3-Cl-4-CF3) = N[C@@H](CCc1ccc(C(F)(F)F)c(Cl)c1)C(=O)O; X37 = Cc1ccc(C[C@@H](C(=O)[*:2])N(CCC(C)C)[*:1])cc1; NMeGly(cPent) = CN[C@H](C(=O)O)C1CCCC1; NMeD = CN[C@@H](CC(=O)O)C(=O)O; NMeL = CN[C@@H](CC(C)C)C(=O)O; Morpholide = C1CN(*)CCO1; NMeA = CN[C@@H](C)C(=O)O; Ac5c = NC1(C(=O)O)CCCC1; Aze = O=C(O)[C@@H]1CCN1; Sar = CNCC(=O)O

Assays:
[1] = tested on: human lung cancer strain NCI-H441; format: cell-based
Outline: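 Step one: dispense the test compound in serial DMSO dilutions. Step three: add the reagent and measure […].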

[2] = molecular target: HRAS wild-type protein (Homo sapiens, UniProt P01112); assay: Binding to HRAS by surface plasmon resonance (SPR), KD and KD ratio to KRAS
Sequence of HRAS wild-type protein (P01112 whole entry): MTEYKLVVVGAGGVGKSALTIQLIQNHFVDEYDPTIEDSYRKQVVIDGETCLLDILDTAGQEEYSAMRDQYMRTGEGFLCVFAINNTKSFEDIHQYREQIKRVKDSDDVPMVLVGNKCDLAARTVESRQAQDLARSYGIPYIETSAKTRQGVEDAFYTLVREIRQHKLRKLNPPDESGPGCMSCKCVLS
Outline: (§1)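 Biotinylated GDP-bound RAS was captured at about 100–300 RU. Running buffer: HBS pH 7.4, 10 mM MgCl2, 10 µM GDP, 1 mM DTT, 0.01% Tween 20, 4% DMSO.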

[3] = molecular target: GDP-bound NRAS wild-type protein (Homo sapiens, UniProt P01111); assay: Binding to NRAS by surface plasmon resonance (SPR), KD and KD ratio to KRAS
Sequence of GDP-bound NRAS wild-type protein (P01111 whole entry): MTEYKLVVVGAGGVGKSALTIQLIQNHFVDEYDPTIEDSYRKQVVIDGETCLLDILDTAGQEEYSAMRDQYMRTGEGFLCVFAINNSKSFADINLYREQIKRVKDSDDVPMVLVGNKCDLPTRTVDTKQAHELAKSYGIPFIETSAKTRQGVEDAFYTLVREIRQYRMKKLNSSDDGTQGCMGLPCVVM
Outline: as §1

[4] = ratio of KD value for HRAS wild-type protein to KD value for KRAS (SPR)
[5] = ratio of KD value for GDP-bound NRAS wild-type protein to KD value for KRAS (SPR)
[6] = ratio of KD for HRAS wild-type protein to KD for KRAS
[7] = ratio of KD for GDP-bound NRAS wild-type protein to KD for KRAS
[8] = ratio of the KD value with respect to HRAS wild-type protein to the KD value with respect to KRAS
[9] = ratio of the KD value with respect to GDP-bound NRAS wild-type protein to the KD value with respect to KRAS

| IC50 [1] | SMILES | HRAS /KRAS [2, 4] | NRAS /KRAS [3, 5] | HRAS /KRAS [2, 6] | NRAS /KRAS [3, 7] | HRAS /KRAS [2, 8] | NRAS /KRAS [3, 9] |
| --- | --- | --- | --- | --- | --- | --- | --- |
| 8.5 nM | CCO[C@@H]1C[C@H]2C(=O)NC3(CC(C)(C)C3)C(=O)N(C)[C@@H](C3CCCC3)C(=O)N(C)[C@H](C(=O)N(C)C)CC(=O)N(C)[C@@H](CC)C(=O)N[C@@H]([C@@H](C)CC)C(=O)N(C)CC(=O)N(C)[C@H]3C/C=C\CCN(C3=O)[C@@H](Cc3ccc(C)cc3)C(=O)N(C)CC(=O)N[C@@H](CCc3ccc(C(F)(F)F)c(OC)c3)C(=O)N2C1 [PP1873] | B (a compound having 3 or more and less than 10 is denoted as B) | A (a compound having 10 or more and less than 20 is denoted as A) | – | – | – | – |
| 174 nM | CCO[C@@H]1C[C@H]2C(=O)NC3(CC=CC3)C(=O)N(C)[C@@H](C3CCCC3)C(=O)N(C)[C@H](C(=O)N3CCOCC3)CC(=O)N(C)[C@@H](COC)C(=O)N[C@@H]([C@@H](C)CC)C(=O)N(C)CC(=O)N(C)[C@H]3CCCCCN(C3=O)[C@@H](Cc3ccc(C(F)(F)F)cc3)C(=O)N(C)CC(=O)N[C@@H](CCc3cc(F)c(C(F)(F)F)c(F)c3)C(=O)N2C1 [PP0842] | – | – | B (a compound having 3 or more and less than 10 is denoted as B) | B (a compound having 3 or more and less than 10 is denoted as B) | – | – |
| 21.8 nM | CC[C@H](C)[C@@H]1NC(=O)[C@H](CC(C)C)N(C)C(=O)C[C@@H](C(=O)N2CCOCC2)N(C)C(=O)[C@H](C2CCCC2)N(C)C(=O)C2(CCCC2)NC(=O)[C@@H]2CCCN2C(=O)[C@H](CCc2ccc(C(F)(F)F)c(Cl)c2)NC(=O)CN(C)C(=O)[C@H](Cc2ccc(OC(F)(F)F)cc2)N2CCCC[C@@H](C2=O)N(C)C(=O)CN(C)C1=O [PP0536] | – | – | – | – | B (a compound having 3 or more and less than 10 is denoted as B) | B (a compound having 3 or more and less than 10 is denoted as B) |
| 77.1 nM | CCC(CC)[C@H]1C(=O)N(C)[C@H](C(=O)N(C)C)CC(=O)N(C)[C@@H](COC)C(=O)N[C@@H]([C@@H](C)CC)C(=O)N(C)CC(=O)N(C)[C@H]2C/C=C\CCN(C2=O)[C@@H](Cc2ccc(C)cc2)C(=O)N(C)CC(=O)N[C@@H](CCc2ccc(Cl)c(Cl)c2)C(=O)N2C[C@H](OC3CCCC3)C[C@H]2C(=O)N(C)C2(CC(C)(C)C2)C(=O)N1C [PP2818] | – | – | A (a compound having 10 or more and less than 20 is denoted as A) | A (a compound having 10 or more and less than 20 is denoted as A) | – | – |
| 13.4 nM | CCO[C@@H]1C[C@H]2C(=O)NC3(CC(C)(C)C3)C(=O)N(C)[C@@H](C3CCCC3)C(=O)N(C)[C@H](C(=O)N(C)C)CC(=O)N(CC)[C@@H](CC(C)C)C(=O)N[C@@H]([C@@H](C)CC)C(=O)NCC(=O)N(C)[C@H]3C/C=C\CCN(C3=O)[C@@H](Cc3ccc(C(F)(F)F)cc3)C(=O)N(C)CC(=O)N[C@@H](CCc3cc(F)c(C(F)(F)F)c(F)c3)C(=O)N2C1 [PP1772] | B (a compound having 3 or more and less than 10 is denoted as B) | B (a compound having 3 or more and less than 10 is denoted as B) | – | – | – | – |
| 135 nM | CC[C@H](C)[C@@H]1NC(=O)[C@H](COC)N(C)C(=O)C[C@@H](C(=O)N2CCOCC2)N(C)C(=O)[C@H](C2CCCC2)N(C)C(=O)C2(CCCC2)NC(=O)[C@@H]2CCCN2C(=O)[C@H](CCc2cc(F)c(C(F)(F)F)c(F)c2)NC(=O)CN(C)C(=O)[C@H](Cc2ccc(C(F)(F)F)cc2)N2CCCCC[C@@H](C2=O)N(C)C(=O)CN(C)C1=O [PP0845] | – | – | B (a compound having 3 or more and less than 10 is denoted as B) | B (a compound having 3 or more and less than 10 is denoted as B) | – | – |
| 6.4 nM | CC[C@H](C)[C@@H]1NC(=O)[C@H](CC(C)C)N(C)C(=O)C[C@@H](C(=O)N2CCOCC2)N(C)C(=O)[C@H](C2CCCC2)N(C)C(=O)C2(CCCC2)NC(=O)[C@@H]2CCCN2C(=O)[C@H](CCc2ccc(C(F)(F)F)c(Cl)c2)NC(=O)CN(C)C(=O)[C@H](Cc2ccc(C)cc2)N(CCC(C)C)C(=O)[C@@H]2CCN2C(=O)[C@H](C)N(C)C1=O [PP0086] ([NMeL]I[NMeA][Aze][X37][Sar][hPhe(3-Cl-4-CF3)]P[Ac5c][NMeGly(cPent)][NMeD]-Morpholide; lactam N-11) | – | – | B (a compound having 3 or more and less than 10 is denoted as B) | C (A compound having a KD ratio of 0.1 or more and less than 3 is denoted as C) | – | – |
| 12.5 nM | CCO[C@@H]1C[C@H]2C(=O)NC3(CC(C)(C)C3)C(=O)N(C)[C@@H](C3CCCC3)C(=O)N(C)[C@H](C(=O)N(C)C)CC(=O)N(C)[C@@H](C(C)C)C(=O)N[C@@H]([C@@H](C)CC)C(=O)N(C)CC(=O)N(C)[C@H]3C/C=C\CCN(C3=O)[C@@H](Cc3ccc(C(F)(F)F)cc3)C(=O)N(C)CC(=O)N[C@@H](CCc3ccc(C(F)(F)F)c(OC)c3)C(=O)N2C1 [PP1979] | – | – | – | – | A (a compound having 10 or more and less than 20 is denoted as A) | AA (a compound having 20 or more is denoted as AA) |
| 10.8 nM | CC[C@H](C)[C@@H]1NC(=O)[C@H](CC(C)C)N(C)C(=O)C[C@@H](C(=O)N(C)CC)N(C)C(=O)[C@H](C2CCCC2)N(C)C(=O)C2(CC(C)(C)C2)NC(=O)[C@@H]2C[C@H](C)CN2C(=O)[C@H](CCc2ccc(C(F)(F)F)c(OC)c2)NC(=O)CN(C)C(=O)[C@H](Cc2ccc(C)cc2)N2CC/C=C\C[C@@H](C2=O)N(C)C(=O)CN(C)C1=O [PP1906] | – | – | – | – | A (a compound having 10 or more and less than 20 is denoted as A) | A (a compound having 10 or more and less than 20 is denoted as A) |
| 216 nM | CC[C@H](C)[C@@H]1NC(=O)[C@H](CC(C)C)N(C)C(=O)C[C@@H](C(=O)N2CCOCC2)N(C)C(=O)[C@H](C2CCCC2)N(C)C(=O)C2(CCCC2)NC(=O)[C@@H]2CCCN2C(=O)[C@H](CCc2ccc(C(F)(F)F)c(Cl)c2)NC(=O)CN(C)C(=O)[C@H](Cc2ccc(OC(F)(F)F)cc2)N2CCCCC[C@@H](C2=O)N(C)C(=O)CN(C)C1=O [PP0615] | – | – | – | – | B (a compound having 3 or more and less than 10 is denoted as B) | B (a compound having 3 or more and less than 10 is denoted as B) |
| 5.5 nM | CCO[C@@H]1C[C@H]2C(=O)NC3(CC(C)(C)C3)C(=O)N(C)[C@@H](C3CCCC3)C(=O)N(C)[C@H](C(=O)N(C)CC)CC(=O)N(C)[C@@H](C3CCC3)C(=O)N[C@@H]([C@@H](C)CC)C(=O)N(C)CC(=O)N(C)[C@H]3C/C=C\CCN(C3=O)[C@@H](Cc3ccc(C(F)(F)F)cc3)C(=O)N(C)CC(=O)N[C@@H](CCc3cc(F)c(C(F)(F)F)c(F)c3)C(=O)N2C1 [PP2038] | – | – | – | – | A (a compound having 10 or more and less than 20 is denoted as A) | A (a compound having 10 or more and less than 20 is denoted as A) |
| 3.8 nM | CCO[C@@H]1C[C@H]2C(=O)NC3(CCC3)C(=O)N(C)[C@@H](C3CCCC3)C(=O)N(C)[C@H](C(=O)N(C)C)CC(=O)N(C)[C@@H](CC3CCCCC3)C(=O)N[C@@H]([C@@H](C)CC)C(=O)N(C)CC(=O)N(C)[C@H]3CCCCN(C3=O)[C@@H](Cc3ccc(C(F)(F)F)cc3)C(=O)N(C)CC(=O)N[C@@H](CCc3cc(F)c(C(F)(F)F)c(F)c3)C(=O)N2C1 [PP0701] | – | – | – | – | B (a compound having 3 or more and less than 10 is denoted as B) | C (A compound having a KD ratio of 0.1 or more and less than 3 is denoted as C) |
| 118 nM | CCC[C@H]1C(=O)N[C@@H]([C@@H](C)CC)C(=O)N(C)CC(=O)N(C)[C@H]2C/C=C\CCN(C2=O)[C@@H](Cc2ccc(C(F)(F)F)cc2)C(=O)N(C)CC(=O)N[C@@H](CCc2ccc(Cl)c(Cl)c2)C(=O)N2CCOC[C@H]2C(=O)NC2(CC(C)(C)C2)C(=O)N(C)[C@@H](C(CC)CC)C(=O)N(C)[C@H](C(=O)N(C)C)CC(=O)N1C [PP2920] | – | – | A (a compound having 10 or more and less than 20 is denoted as A) | AA (a compound having 20 or more is denoted as AA) | – | – |

| SMILES | IC50 [1] | HRAS /KRAS [2, 4] | NRAS /KRAS [3, 5] | HRAS /KRAS [2, 6] | NRAS /KRAS [3, 7] | HRAS /KRAS [2, 8] | NRAS /KRAS [3, 9] |
| --- | --- | --- | --- | --- | --- | --- | --- |
| CCC[C@H]1C(=O)N[C@@H]([C@@H](C)CC)C(=O)N(C)CC(=O)N(C)[C@H]2C/C=C\CCN(C2=O)[C@@H](Cc2ccc(C)cc2)C(=O)N(C)CC(=O)N[C@@H](CCc2ccc(C(F)(F)F)c(OC)c2)C(=O)N2C[C@H](OCC)C[C@H]2C(=O)N(C)C2(CCC2)C(=O)N(C)[C@@H](C2CCCC2)C(=O)N(C)[C@H](C(=O)N2CCCCC2)CC(=O)N1C [PP3104] | 3.8 nM | – | – | A (a compound having 10 or more and less than 20 is denoted as A) | A (a compound having 10 or more and less than 20 is denoted as A) | – | – |
| CCO[C@@H]1C[C@H]2C(=O)NC3(CCC3)C(=O)N(C)[C@@H](C(CC)CC)C(=O)N(C)[C@H](C(=O)N3CCCCC3)CC(=O)N(C)[C@H]3CCC/C=C/c4ccc(cc4)C[C@@H](C(=O)N(C)CC(=O)N[C@@H](CCc4cc(F)c(C(F)(F)F)c(F)c4)C(=O)N2C1)N1CC/C=C\C[C@@H](C1=O)N(C)C(=O)CN(C1CC1)C(=O)[C@H]([C@@H](C)CC)NC3=O [PP2956] | 27.8 nM | – | – | A (a compound having 10 or more and less than 20 is denoted as A) | AA (a compound having 20 or more is denoted as AA) | – | – |
| CC[C@H](C)[C@@H]1NC(=O)[C@H](CC(C)C)N(C)C(=O)C[C@@H](C(=O)N2CCCCC2)N(C)C(=O)[C@H](C2CCCC2)N(C)C(=O)C2(CCCC2)NC(=O)[C@@H]2CCCN2C(=O)[C@H](CCc2cc(F)c(C(F)(F)F)c(F)c2)NC(=O)CN(C)C(=O)[C@H](Cc2ccc(C(F)(F)F)cc2)N2CCCCC[C@@H](C2=O)N(C)C(=O)CN(C)C1=O [PP0510] | 391 nM | – | – | – | – | B (a compound having 3 or more and less than 10 is denoted as B) | B (a compound having 3 or more and less than 10 is denoted as B) |
